Measured values as given in article PMC10199020 (Nature Communications, 2023).

Assays:
[1] = target: T1, NL-IL23R and IL12Rβ1 (IL-23 receptor) on HEK293T cells (Homo sapiens, UniProt P42701+Q5VWK5); assay: P630-TMR NanoBRET competition assay; format: binding; conditions: Fig. 5a
T1 construct: expressed in transfected cells; host or cells: HEK293T (ATCC CRL-3216), transient transfection
Protocol: (§1) Transient transfections for experiments outlined in Fig. 6 were conducted by seeding 100 μL of 2 × 10^5 cells/ml concentrated HEK293T cells into poly-D-lysine (PDL) coated white 96 well clear bottom assay microplates (Greiner) and incubating overnight. The following day transfection mixes were made up that contained a 4:1 ratio of IL23R to IL12Rβ1 constructs to a total concentration of 100 ng per well with a 0.3 μL per well of FuGENE HD transfection reagent (Promega) in OptiMEM (Gibco). These mixtures were incubated for 10 min before being added to the plate at 5 μL per well. The cells were then incubated overnight to allow expression. For all other experiments 2 mL containing 4 × 10^5 cells were seeded into 6 well plates and incubated 5 h before being transiently transfected with 100 μL per well of a transfection mix containing 2 μg of DNA and 6 μL of FuGENE HD. These cells were then incubated overnight before being re-suspended the following day and seeded into PDL coated white assay microplates at 100 μL containing 3 × 10^4 transfected cells. Cells were then incubated overnight before the experiment. Estimates of total expression levels for the different NL-constructs were made by comparing the luminescence levels achieved to that of a NanoLuciferase standard curve measured under the same conditions (Supplementary Fig. 1).
Media was removed from white 96-well microplates containing transfected cells and replaced with fluoroprobe in the presence or absence of antagonist in 50 μL Hanks Balanced Salt Solution (HBSS) with 1 mg/mL BSA (Merck). After a 1-hour incubation at 37 °C without CO2, 5 μL of HBSS containing 77 μM furimizine was added to each well (final concentration 7 μM), the plate incubated for 5-minutes and the BRET signal measured using a PheraStar FS plate reader (BMG Labtech; data acquisition software version 5.41; MARS analysis software version 3.32) with a 450 ± 30 nm and >550 nm long pass filters.
(§2) Antagonist competition data were fit with the equation:4 Y=Bmin+Bmax−Bmin/1+10^(LogXC50−[A])C Where ‘Bmax’ is the maximum BRET signal, ‘Bmin’ is the minimum BRET signal, ‘LogXC50’ is the log of the 50% inhibiting concentration of antagonist, ‘[A]’ is the concentration of antagonist and ‘C’ is the Hill slope.

[2] = target: T1, NL-IL23R and IL12Rβ1 (IL-23 receptor) on HEK293T cells; assay: IL23-TMR NanoBRET competition assay; format: binding; conditions: 300 pM IL23-TMR
Protocol: Schematic created with Biorender.com. IL23R is shown in orange, IL12Rβ1 in purple, IL23p19 in blue, IL12p40 in green and the presence of a TAMRA fluorophore by a pink star. […] In b and c, data are mean ± SEM from 5 independent experiments conducted in either duplicate or triplicate. Details on absolute number of data points included for each concentration are provided in the associated Source Data file.
as §1
Media was removed from white 96-well microplates containing transfected cells and replaced with fluoroprobe in the presence or absence of antagonist in 50 μL Hanks Balanced Salt Solution (HBSS) with 1 mg/mL BSA (Merck).
as §2

[3] = target: HiBit-IL23R and LgBit-IL12Rβ1 (Homo sapiens, UniProt Q5VWK5); conditions: 10 μM P630
Sequence of HiBit-IL23R and LgBit-IL12Rβ1 (Q5VWK5 24-629, other chains not shown): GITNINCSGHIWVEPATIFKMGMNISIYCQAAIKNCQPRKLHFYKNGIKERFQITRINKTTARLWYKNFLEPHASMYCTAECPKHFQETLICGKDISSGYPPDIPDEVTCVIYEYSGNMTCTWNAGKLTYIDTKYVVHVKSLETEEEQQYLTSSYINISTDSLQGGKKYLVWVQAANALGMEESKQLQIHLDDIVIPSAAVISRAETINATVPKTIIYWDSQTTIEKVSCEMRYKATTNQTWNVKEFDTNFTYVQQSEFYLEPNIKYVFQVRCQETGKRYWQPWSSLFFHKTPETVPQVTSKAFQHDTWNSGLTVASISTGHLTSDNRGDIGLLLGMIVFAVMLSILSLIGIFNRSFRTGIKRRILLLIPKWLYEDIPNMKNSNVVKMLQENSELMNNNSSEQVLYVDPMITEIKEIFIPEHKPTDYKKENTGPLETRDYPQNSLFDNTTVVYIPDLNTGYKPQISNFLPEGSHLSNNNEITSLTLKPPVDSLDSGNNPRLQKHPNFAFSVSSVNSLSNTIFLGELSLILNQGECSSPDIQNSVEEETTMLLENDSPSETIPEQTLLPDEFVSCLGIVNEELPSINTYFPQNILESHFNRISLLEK
Description: Finally, we utilised a NanoBiT BRET system in which a complemented luciferase with fragments bound to both receptor subunits (Fig. 3) can be used as a BRET donor to measure interactions with binary receptor complexes.
Data in b are mean ± SEM from three independent experiments. In each individual experiment, triplicate determinations were made for total binding and duplicate or triplicate determinations made for non-specific binding. Data in c are the mean values obtained in five independent experiments, each conducted with six replicates. […] Data in d are the mean ± SEM from five (NL-IL23R and NL-23R + IL12Rβ1) or three (HiBit-IL23R + LgBit-IL12Rβ1) independent experiments. Source data are provided as a Source Data file.

T1 sequence (Q5VWK5 24-629, other chains not shown): as above

COc1ccc(C[C@H](NC(=O)[C@H]2NC(=O)[C@H](CCC(N)=O)NC(=O)[C@H](Cc3c[nH]c4ccccc34)NC(=O)[C@H]([C@@H](C)O)NC(=O)[C@H](CC(N)=O)NC(=O)[C@@H](NC(C)=O)C(C)(C)SSC2(C)C)C(=O)N[C@@H](Cc2ccc3ccccc3c2)C(=O)NC(C)(C)C(=O)N[C@@H](CCC(=O)O)C(=O)N[C@@H](CC(N)=O)C(=O)N[C@@H](CC(N)=O)C(N)=O)cc1 [P630]
Displacement of 75 nM P630-TMR (Mean) ([1]; [P630] -4.69897 logM): 100.016
Displacement of 75 nM P630-TMR (Mean) ([1]; [P630] -5.69897 logM): 98.9078
Displacement of 75 nM P630-TMR (Mean) ([1]; [P630] -6.69897 logM): 89.0568
Displacement of 75 nM P630-TMR (Mean) ([1]; [P630] -7.69897 logM): 51.2574
Displacement of 75 nM P630-TMR (Mean) ([1]; [P630] -8.69897 logM): 11.835
Displacement of 75 nM P630-TMR (Mean) ([1]; [P630] -9.69897 logM): -0.3727
Displacement of 75 nM P630-TMR (Mean) ([1]; [P630] -10.699 logM): 3.757
Displacement of 75 nM P630-TMR (Mean) ([1]; [P630] -11.699 logM): 1.217
Inhibition of IL23-TMR binding (Mean) ([2]; [P630] -5.09151 logM): 84.0625
Inhibition of IL23-TMR binding (Mean) ([2]; [P630] -5.56864 logM): 77.8076
Inhibition of IL23-TMR binding (Mean) ([2]; [P630] -6.04576 logM): 62.3503
Inhibition of IL23-TMR binding (Mean) ([2]; [P630] -6.52288 logM): 55.1992
Inhibition of IL23-TMR binding (Mean) ([2]; [P630] -7 logM): 30.8209
Inhibition of IL23-TMR binding (Mean) ([2]; [P630] -7.47712 logM): 11.8559
Inhibition of IL23-TMR binding (Mean) ([2]; [P630] -7.95424 logM): 6.902
Inhibition of IL23-TMR binding (Mean) ([2]; [P630] -8.90849 logM): 4.004
Inhibition of IL23-TMR binding (Mean) ([2]; [P630] -9.38561 logM): -5.834
Inhibition of IL23-TMR binding (Mean) ([2]; [P630] -9.86273 logM): 10.7231
Effect on receptor dimerisation (NanoLuc complementation) [3]: did not affect receptor dimerisation
